From patent US11090319B2, “Therapeutic uses of pharmaceutical compositions comprising cyclic boronic acid ester derivatives” (Melinta Subsidiary Corp., priority 2010, dated 2021)
Where two headings read alike, the source gives them in different places.

Legend:
[1] = tested on: strains expressing class A ESBLs; type: cell-based; conditions: tigemonam at 4 μg/mL; for MPC4 TEM-10 EC1009: strain EC1009 TEM-10; for MPC4 CTX-M-14 KP1005: strain KP1005 CTX-M-14; for MPC4 CTX-M-15 KP1009: strain KP1009 CTX-M-15; for MPC4 SHV-12 KP1010: strain KP1010 SHV-12; for MPC4 SHV-18 KP1012: strain KP1012 SHV-18; for MPC4 TEM-10 ec302: strain ec302 TEM-10; for MPC4 TEM-26 ec304: strain ec304 TEM-26; for MPC4 SHV-5 ec308: strain ec308 SHV-5
Procedure: Selected β-lactamase inhibitors were also tested for their ability to potentiate the monobactam tigemonam.

[2] = tested on: strains expressing KPC alone or in combination with additional beta-lactamases; experiment: microbe, parasite or virus in culture; type: cell-based

Compound | MPC4 TEM-10 EC1009 [1] | MPC4 CTX-M-14 KP1005 [1] | MPC4 CTX-M-15 KP1009 [1] | MPC4 SHV-12 KP1010 [1] | MPC4 SHV-18 KP1012 [1] | MPC4 TEM-10 ec302 [1] | MPC4 TEM-26 ec304 [1] | MPC4 SHV-5 ec308 [1] | also measured
N[C@@H](C(=O)N[C@H]1CC[C@@H](CC(=O)O)OB1O)c1ccccc1 [Compound 9] | Z (MPC@4 of greater than 10 μg/mL) | Z (MPC@4 of greater than 10 μg/mL) | Z (MPC@4 of greater than 10 μg/mL) | Z (MPC@4 of greater than 10 μg/mL) | Z (MPC@4 of greater than 10 μg/mL) | Z (MPC@4 of greater than 10 μg/mL) | Z (MPC@4 of greater than 10 μg/mL) | Z (MPC@4 of greater than 10 μg/mL) | –
O=C(O)C[C@@H]1CC[C@H](NC(=O)NCc2ccccc2)B(O)O1 [Compound 18] | X (MPC@4 of less than 2 μg/mL) | X (MPC@4 of less than 2 μg/mL) | X (MPC@4 of less than 2 μg/mL) | X (MPC@4 of less than 2 μg/mL) | X (MPC@4 of less than 2 μg/mL) | Y (MPC@4 of 2 μg/mL to 10 μg/mL) | Y (MPC@4 of 2 μg/mL to 10 μg/mL) | Y (MPC@4 of 2 μg/mL to 10 μg/mL) | –
O=C(O)CC1C=CC[C@H](NC(=O)Cc2cccs2)B(O)O1 (stereo partly drawn) [Compound 64, 2-((3R)-2-hydroxy-3-(2-(thiophen-2-yl)acetamido)-2,3,4,7-tetrahydro-1,2-oxaborepin-7-yl)acetic acid] | Y (MPC@4 of 2 μg/mL to 10 μg/mL) | Z (MPC@4 of greater than 10 μg/mL) | Y (MPC@4 of 2 μg/mL to 10 μg/mL) | X (MPC@4 of less than 2 μg/mL) | Y (MPC@4 of 2 μg/mL to 10 μg/mL) | Z (MPC@4 of greater than 10 μg/mL) | Z (MPC@4 of greater than 10 μg/mL) | Y (MPC@4 of 2 μg/mL to 10 μg/mL) | –
O=C(O)C[C@@H]1C=CC[C@H](NC(=O)Cc2cccs2)B(O)O1 [Compound 67, 2-((3R,7R)-2-hydroxy-3-(2-(thiophen-2-yl)acetamido)-2,3,4,7-tetrahydro-1,2-oxaborepin-7-yl)acetic acid] | Z (MPC@4 of greater than 10 μg/mL) | Z (MPC@4 of greater than 10 μg/mL) | Y (MPC@4 of 2 μg/mL to 10 μg/mL) | Y (MPC@4 of 2 μg/mL to 10 μg/mL) | Y (MPC@4 of 2 μg/mL to 10 μg/mL) | Z (MPC@4 of greater than 10 μg/mL) | Z (MPC@4 of greater than 10 μg/mL) | Z (MPC@4 of greater than 10 μg/mL) | –
O=C(O)C[C@H]1C=CC[C@H](NC(=O)Cc2cccs2)B(O)O1 [Compound 68, 2-((3R,7S)-2-hydroxy-3-(2-(thiophen-2-yl)acetamido)-2,3,4,7-tetrahydro-1,2-oxaborepin-7-yl)acetic acid] | Y (MPC@4 of 2 μg/mL to 10 μg/mL) | Y (MPC@4 of 2 μg/mL to 10 μg/mL) | Y (MPC@4 of 2 μg/mL to 10 μg/mL) | X (MPC@4 of less than 2 μg/mL) | X (MPC@4 of less than 2 μg/mL) | Y (MPC@4 of 2 μg/mL to 10 μg/mL) | Y (MPC@4 of 2 μg/mL to 10 μg/mL) | Y (MPC@4 of 2 μg/mL to 10 μg/mL) | –
C[C@@H](O)[C@H]1C(=O)N2C(C(=O)O)=C(S[C@@H]3CN[C@H](CNS(N)(=O)=O)C3)[C@H](C)[C@H]12 [Doripenem] | – | – | – | – | – | – | – | – | MIC ([2]; Enterobacter cloacae, Enterobacter cloacae ECL1058, KPC-3, SHV-11, TEM-1, Compound 5 0 mg/L, read-out: MIC of Doripenem): > 4 µg/mL; MIC ([2]; Enterobacter cloacae, Enterobacter cloacae ECL1059, KPC-3, SHV-12, TEM-1, Compound 5 0 mg/L, read-out: MIC of Doripenem): 0.5 to 4 µg/mL; MIC ([2]; Escherichia coli, Escherichia coli EC1007, KPC-3, Compound 5 0 mg/L, read-out: MIC of Doripenem): 0.5 to 4 µg/mL; MIC ([2]; Klebsiella oxytoca, Klebsiella oxytoca KX1017, KPC-2, OXA-2, SHV-30, Compound 5 0 mg/L, read-out: MIC of Doripenem): 0.5 to 4 µg/mL; MIC ([2]; Klebsiella oxytoca, Klebsiella oxytoca KX1018, KPC-2, SHV-40, OXY-1, Compound 5 0 mg/L, read-out: MIC of Doripenem): 0.5 to 4 µg/mL; MIC ([2]; Klebsiella oxytoca, Klebsiella oxytoca KX1019, KPC-2 OXA-2, Compound 5 0 mg/L, read-out: MIC of Doripenem): 0.5 to 4 µg/mL; MIC ([2]; Klebsiella pneumoniae, Klebsiella pneumoniae KP 1004, KPC-2, Compound 5 0 mg/L, read-out: MIC of Doripenem): 0.5 to 4 µg/mL; MIC ([2]; Klebsiella pneumoniae, Klebsiella pneumoniae KP 1008, KPC-2, Compound 5 0 mg/L, read-out: MIC of Doripenem): 0.5 to 4 µg/mL; MIC ([2]; Klebsiella pneumoniae, Klebsiella pneumoniae KP1082, KPC-2 SHV-1, Compound 5 0 mg/L, read-out: MIC of Doripenem): 0.5 to 4 µg/mL; MIC ([2]; Klebsiella pneumoniae, Klebsiella pneumoniae KP1083, KPC-3, SHV-1, TEM-1, Compound 5 0 mg/L, read-out: MIC of Doripenem): > 4 µg/mL; MIC ([2]; Klebsiella pneumoniae, Klebsiella pneumoniae KP1084, KPC-3, SHV-11, TEM-1, Compound 5 0 mg/L, read-out: MIC of Doripenem): > 4 µg/mL; MIC ([2]; Klebsiella pneumoniae, Klebsiella pneumoniae KP 1087, KPC-2, CTX-M-15, SHV-11, TEM-1, Compound 5 0 mg/L, read-out: MIC of Doripenem): > 4 µg/mL; MIC ([2]; Klebsiella pneumoniae, Klebsiella pneumoniae KP1088, KPC-3, SHV-11, TEM-1, Compound 5 0 mg/L, read-out: MIC of Doripenem): 0.5 to 4 µg/mL
C[C@@H](O)[C@H]1C(=O)N2C(C(=O)O)=C(S[C@@H]3CN[C@H](C(=O)Nc4cccc(C(=O)O)c4)C3)[C@H](C)[C@H]12 [Ertapenem] | – | – | – | – | – | – | – | – | MIC ([2]; Enterobacter cloacae, Enterobacter cloacae ECL1058, KPC-3, SHV-11, TEM-1, Compound 5 0 mg/L, read-out: MIC of Ertapenem): > 4 µg/mL; MIC ([2]; Enterobacter cloacae, Enterobacter cloacae ECL1059, KPC-3, SHV-12, TEM-1, Compound 5 0 mg/L, read-out: MIC of Ertapenem): 0.5 to 4 µg/mL; MIC ([2]; Escherichia coli, Escherichia coli EC1007, KPC-3, Compound 5 0 mg/L, read-out: MIC of Ertapenem): > 4 µg/mL; MIC ([2]; Klebsiella oxytoca, Klebsiella oxytoca KX1017, KPC-2, OXA-2, SHV-30, Compound 5 0 mg/L, read-out: MIC of Ertapenem): > 4 µg/mL; MIC ([2]; Klebsiella oxytoca, Klebsiella oxytoca KX1018, KPC-2, SHV-40, OXY-1, Compound 5 0 mg/L, read-out: MIC of Ertapenem): > 4 µg/mL; MIC ([2]; Klebsiella oxytoca, Klebsiella oxytoca KX1019, KPC-2 OXA-2, Compound 5 0 mg/L, read-out: MIC of Ertapenem): > 4 µg/mL; MIC ([2]; Klebsiella pneumoniae, Klebsiella pneumoniae KP 1004, KPC-2, Compound 5 0 mg/L, read-out: MIC of Ertapenem): > 4 µg/mL; MIC ([2]; Klebsiella pneumoniae, Klebsiella pneumoniae KP 1008, KPC-2, Compound 5 0 mg/L, read-out: MIC of Ertapenem): > 4 µg/mL; MIC ([2]; Klebsiella pneumoniae, Klebsiella pneumoniae KP1082, KPC-2 SHV-1, Compound 5 0 mg/L, read-out: MIC of Ertapenem): 0.5 to 4 µg/mL; MIC ([2]; Klebsiella pneumoniae, Klebsiella pneumoniae KP1083, KPC-3, SHV-1, TEM-1, Compound 5 0 mg/L, read-out: MIC of Ertapenem): > 4 µg/mL; MIC ([2]; Klebsiella pneumoniae, Klebsiella pneumoniae KP1084, KPC-3, SHV-11, TEM-1, Compound 5 0 mg/L, read-out: MIC of Ertapenem): > 4 µg/mL; MIC ([2]; Klebsiella pneumoniae, Klebsiella pneumoniae KP 1087, KPC-2, CTX-M-15, SHV-11, TEM-1, Compound 5 0 mg/L, read-out: MIC of Ertapenem): > 4 µg/mL; MIC ([2]; Klebsiella pneumoniae, Klebsiella pneumoniae KP1088, KPC-3, SHV-11, TEM-1, Compound 5 0 mg/L, read-out: MIC of Ertapenem): > 4 µg/mL
C[C@@H](O)[C@H]1C(=O)N2C(C(=O)O)=C(SCCN=CN)C[C@H]12 [Imipenem] | – | – | – | – | – | – | – | – | MIC ([2]; Escherichia coli, read-out: MIC of Imipenem): > 4 µg/mL
C[C@@H](O)[C@H]1C(=O)N2C(C(=O)O)=C(S[C@@H]3CN[C@H](C(=O)N(C)C)C3)[C@H](C)[C@H]12 [Meropenem] | – | – | – | – | – | – | – | – | MIC ([2]; Enterobacter cloacae, read-out: MIC of Meropenem, Enterobacter cloacae ECL1058, KPC-3, SHV-11, TEM-1, Compound 5 0 mg/L): > 4 µg/mL; MIC ([2]; Enterobacter cloacae, read-out: MIC of Meropenem, Enterobacter cloacae ECL1059, KPC-3, SHV-12, TEM-1, Compound 5 0 mg/L): 0.5 to 4 µg/mL; MIC ([2]; Escherichia coli, read-out: MIC of Meropenem, Escherichia coli EC1007, KPC-3, Compound 5 0 mg/L): 0.5 to 4 µg/mL; MIC ([2]; Klebsiella oxytoca, read-out: MIC of Meropenem, Klebsiella oxytoca KX1017, KPC-2, OXA-2, SHV-30, Compound 5 0 mg/L): 0.5 to 4 µg/mL; MIC ([2]; Klebsiella oxytoca, read-out: MIC of Meropenem, Klebsiella oxytoca KX1018, KPC-2, SHV-40, OXY-1, Compound 5 0 mg/L): 0.5 to 4 µg/mL; MIC ([2]; Klebsiella oxytoca, read-out: MIC of Meropenem, Klebsiella oxytoca KX1019, KPC-2 OXA-2, Compound 5 0 mg/L): 0.5 to 4 µg/mL; MIC ([2]; Klebsiella pneumoniae, read-out: MIC of Meropenem, Klebsiella pneumoniae KP 1004, KP C-2, Compound 5 0 mg/L): > 4 µg/mL; MIC ([2]; Klebsiella pneumoniae, read-out: MIC of Meropenem, Klebsiella pneumoniae KP 1008, KPC-2, Compound 5 0 mg/L): 0.5 to 4 µg/mL; MIC ([2]; Klebsiella pneumoniae, read-out: MIC of Meropenem, Klebsiella pneumoniae KP1082, KPC-2 SHV-1, Compound 5 0 mg/L): 0.5 to 4 µg/mL; MIC ([2]; Klebsiella pneumoniae, read-out: MIC of Meropenem, Klebsiella pneumoniae KP1083, KPC-3, SHV-1, TEM-1, Compound 5 0 mg/L): > 4 µg/mL; MIC ([2]; Klebsiella pneumoniae, read-out: MIC of Meropenem, Klebsiella pneumoniae KP1084, KPC-3, SHV-11, TEM-1, Compound 5 0 mg/L): > 4 µg/mL; MIC ([2]; Klebsiella pneumoniae, read-out: MIC of Meropenem, Klebsiella pneumoniae KP 1087, KPC-2, CTX-M-15, SHV-11, TEM-1, Compound 5 0 mg/L): > 4 µg/mL; MIC ([2]; Klebsiella pneumoniae, read-out: MIC of Meropenem, Klebsiella pneumoniae KP1088, KPC-3, SHV-11, TEM-1, Compound 5 0 mg/L): > 4 µg/mL
